Square brackets hold non-standard residues; d marks the D form. Peptide text beside a SMILES is read from it. * marks the point of attachment. His(Trt) = N[C@@H](Cc1cn(C(c2ccccc2)(c2ccccc2)c2ccccc2)cn1)C(=O)O; dPhe(4-Br) = N[C@H](Cc1ccc(Br)cc1)C(=O)O; dPhe(4-F) = N[C@H](Cc1ccc(F)cc1)C(=O)O; Palmitoyl = CCCCCCCCCCCCCCCC(=O)*; Lauroyl = CCCCCCCCCCCC(=O)*; Octanoyl = CCCCCCCC(=O)*
target: T1, GPR39 (Homo sapiens, UniProt O43194)
T1 sequence (O43194 1-453): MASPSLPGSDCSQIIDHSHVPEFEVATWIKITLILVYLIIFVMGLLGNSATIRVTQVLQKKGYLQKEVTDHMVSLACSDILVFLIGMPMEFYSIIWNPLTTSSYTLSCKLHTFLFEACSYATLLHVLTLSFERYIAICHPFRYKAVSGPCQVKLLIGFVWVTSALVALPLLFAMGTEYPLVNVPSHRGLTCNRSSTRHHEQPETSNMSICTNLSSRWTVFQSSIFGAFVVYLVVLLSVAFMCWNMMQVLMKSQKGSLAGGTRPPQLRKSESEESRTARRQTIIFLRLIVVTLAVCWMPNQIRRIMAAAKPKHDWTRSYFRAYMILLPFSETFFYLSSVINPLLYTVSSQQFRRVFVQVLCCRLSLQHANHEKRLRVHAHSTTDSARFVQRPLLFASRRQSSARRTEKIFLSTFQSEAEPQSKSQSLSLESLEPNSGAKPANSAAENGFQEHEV
Description: Specifically, the fibroblast cell line CV-1 (1×10^5 cells/ml, Korea Cell Line Bank) was cultured in a 96 well cell culture plate for 24 hours, and then treated with GPR39 inserted into adenovirus and SRE (serum response element) luciferase at 50 MOI (multiplicity of infection) and 25 MOI virus for 3 hours, respectively, and then cultured for 24 hours.

Row | SMILES | ECmax (-fold induction over basal)
1 | CCCCCCCCCCCC(=O)NCCCC[C@H](NC(=O)[C@@H](N)Cc1cn(C(c2ccccc2)(c2ccccc2)c2ccccc2)cn1)C(=O)N[C@@H](Cc1ccccc1)C(=O)N[C@@H](Cc1ccc(O)cc1)C(=O)O [HKFY-25, N6-dodecanoyl-N2-(Nt-trityl-L-histidyl)-L-lysyl-L-phenylalanyl-L-tyrosine] (H-[His(Trt)]K(Lauroyl)FY-OH) | 7.72 ± 0.57 -fold induction over basal
2 | CCCCCCCCCCCCCCCC(=O)NCCCC[C@H](NC(=O)[C@@H](N)Cc1cn(C(c2ccccc2)(c2ccccc2)c2ccccc2)cn1)C(=O)N[C@@H](Cc1ccccc1)C(=O)N[C@@H](Cc1ccc(O)cc1)C(=O)O [HKFY-27, N6-palmitoyl-N2-(Nt-trityl-L-histidyl)-L-lysyl-L-phenylalanyl-L-tyrosine] (H-[His(Trt)]K(Palmitoyl)FY-OH) | 20.4 ± 0.57 -fold induction over basal
3 | CCCCCCCC(=O)NCCCC[C@H](NC(=O)[C@@H](N)Cc1cn(C(c2ccccc2)c2ccc(F)cc2F)cn1)C(=O)N[C@H](Cc1ccc(C)cc1)C(=O)N[C@@H](Cc1ccc(O)cc1)C(=O)O (stereo partly drawn) [HKFY-32, ((2R)-2-((2S)-2-((2S)-2-amino-3-(1-((2,4-difluorophenyl)(phenyl)methyl)-1H-imidazol-4-yl)propanamido)-6-octanamidohexanamido)-3-(p-tolyl)propanoyl)-L-tyrosine] | 21.5 ± 2.7 -fold induction over basal
4 | CCCCCCCC(=O)NCCCC[C@H](NC(=O)[C@@H](N)Cc1cn(C(c2ccccc2)(c2ccccc2)c2ccccc2)cn1)C(=O)N[C@@H](Cc1ccccc1)C(=O)N[C@@H](Cc1ccc(O)cc1)C(=O)N[C@@H](CO)C(=O)N[C@@H](CC(=O)O)C(=O)N[C@@H](CCC(N)=O)C(=O)N[C@@H](CCC(N)=O)C(=O)N[C@@H](C)C(=O)N[C@@H](CCCNC(=N)N)C(=O)N[C@@H](Cc1ccccc1)C(N)=O [HKFY-38, (3S,6S,9S,12S,15S)-15-((S)-2-amino-3-(1-trityl-1H-imidazol-4-yl)propanamido)-12-benzyl-3-(((6S,9S,12S,15S)-1,18-diamino-6-(((S)-1-amino-1-oxo-3-phenylpropan-2-yl)carbamoyl)-12-(3-amino-3-oxopropyl)-1-imino-9-methyl-8,11,14,18-tetraoxo-2,7,10,13-tetraazaoctadecan-15-yl)carbamoyl)-9-(4-hydroxybenzyl)-6-(hydroxymethyl)-5,8,11,14,21-pentaoxo-4,7,10,13,20-pentaazaoctacosanoic acid] (H-[His(Trt)]K(Octanoyl)FYSDQQARF-NH2) | 16.5 ± 0.02 -fold induction over basal
5 | CCCCCCCC(=O)NCCCC[C@H](NC(=O)[C@@H](N)Cc1cn(C(c2ccccc2)(c2ccccc2)c2ccccc2)cn1)C(=O)N[C@@H](Cc1ccccc1)C(=O)N[C@@H](Cc1ccc(O)cc1)C(=O)N[C@@H](Cc1c[nH]cn1)C(=O)N[C@@H](CCC(N)=O)C(=O)N[C@@H](CCC(N)=O)C(=O)N[C@@H](C)C(=O)N[C@@H](CCCNC(=N)N)C(=O)N[C@@H](Cc1ccccc1)C(N)=O [HKFY-42, (S)-2-((2S,5S,8S,11S)-2-((1H-imidazol-4-yl)methyl)-11-((S)-2-amino-3-(1-trityl-1H-imidazol-4-yl)propanamido)-8-benzyl-5-(4-hydroxybenzyl)-4,7,10,17-tetraoxo-3,6,9,16-tetraazatetracosanamido)-N1-((S)-5-amino-1-(((S)-1-(((S)-1-(((S)-1-amino-1-oxo-3-phenylpropan-2-yl)amino)-5-guanidino-1-oxopentan-2-yl)amino)-1-oxopropan-2-yl)amino)-1,5-dioxopentan-2-yl)pentanediamide] (H-[His(Trt)]K(Octanoyl)FYHQQARF-NH2) | 11.8 ± 0.02 -fold induction over basal
6 | CCCCCCCC(=O)NCCCC[C@H](NC(=O)[C@@H](N)Cc1cn(C(c2ccccc2)(c2ccccc2)c2ccccc2)cn1)C(=O)N[C@@H](Cc1ccccc1)C(=O)N[C@@H](Cc1ccc(O)cc1)C(=O)N[C@@H](CCC(N)=O)C(=O)N[C@@H](CC(N)=O)C(=O)N[C@@H](CCC(N)=O)C(=O)N[C@@H](C)C(=O)N[C@@H](CCCNC(=N)N)C(=O)N[C@@H](Cc1ccccc1)C(N)=O [HKFY-43, (S)-N1-((S)-1-(((S)-1-(((S)-1-amino-1-oxo-3-phenylpropan-2-yl)amino)-5-guanidino-1-oxopentan-2-yl)amino)-1-oxopropan-2-yl)-2-((2S,5S,8S,11S,14S)-2-(2-amino-2-oxoethyl)-14-((S)-2-amino-3-(1-trityl-1H-imidazol-4-yl)propanamido)-5-(3-amino-3-oxopropyl)-11-benzyl-8-(4-hydroxybenzyl)-4,7,10,13,20-pentaoxo-3,6,9,12,19-pentaazaheptacosanamido)pentanediamide] (H-[His(Trt)]K(Octanoyl)FYQNQARF-NH2) | 12.1 ± 0.02 -fold induction over basal
7 | CCCCCCCC(=O)NCCCC[C@H](NC(=O)[C@@H](N)Cc1cn(C(c2ccccc2)(c2ccccc2)c2ccccc2)cn1)C(=O)N[C@@H](Cc1ccccc1)C(=O)N[C@@H](Cc1ccc(O)cc1)C(=O)N[C@@H](Cc1c[nH]c2ccccc12)C(=O)O [HKFY-44, N6-octanoyl-N2-(Nt-trityl-L-histidyl)-L-lysyl-L-phenylalanyl-L-tyrosyl-L-tryptophan] (H-[His(Trt)]K(Octanoyl)FYW-OH) | 20 ± 0.47 -fold induction over basal
8 | CCCCCCCC(=O)NCCCC[C@H](NC(=O)[C@@H](N)Cc1cn(C(c2ccccc2)(c2ccccc2)c2ccccc2)cn1)C(=O)N[C@@H](Cc1ccccc1)C(=O)O [HKFY-49, N6-octanoyl-N2-(Nt-trityl-L-histidyl)-L-lysyl-L-phenylalanine] (H-[His(Trt)]-Lys(Octanoyl)-Phe-OH) | 18.3 ± 1.8 -fold induction over basal

Further lines, results first:

Row | ECmax (-fold induction over basal) | SMILES
9 | 18 ± 1.7 -fold induction over basal | CCCCCCCC(=O)NCCCC[C@H](NC(=O)[C@@H](N)Cc1cn(CCc2ccccc2)cn1)C(=O)N[C@@H](Cc1ccccc1)C(=O)N[C@@H](Cc1ccc(O)cc1)C(=O)O [HKFY-19, N6-octanoyl-N2-(Nt-phenethyl-L-histidyl)-L-lysyl-L-phenylalanyl-L-tyrosine]
10 | 20.26 ± 2.7 -fold induction over basal | CCCCCCCC(=O)NCCCC[C@H](NC(=O)[C@@H](N)Cc1cn(C(c2ccccc2)c2ccc(OC)cc2)cn1)C(=O)N[C@@H](Cc1ccccc1)C(=O)N[C@@H](Cc1ccc(O)cc1)C(=O)O (stereo partly drawn) [HKFY-20, N2-(Nt-((4-methoxyphenyl)(phenyl)methyl)-L-histidyl)-N6-octanoyl-L-lysyl-L-phenylalanyl-L-tyrosine]
11 | 18.3 ± 2.5 -fold induction over basal | CCCCCCCC(=O)NCCCC[C@H](NC(=O)[C@@H](N)Cc1cn([C@H](c2ccccc2)c2ccc(Cl)cc2)cn1)C(=O)N[C@@H](Cc1ccccc1)C(=O)N[C@@H](Cc1ccc(O)cc1)C(=O)O [HKFY-21, N2-(Nt-((R)-(4-chlorophenyl)(phenyl)methyl)-L-histidyl)-N6-octanoyl-L-lysyl-L-phenylalanyl-L-tyrosine]
12 | 21.3 ± 1.8 -fold induction over basal | CCCCCCCC(=O)NCCCC[C@H](NC(=O)[C@@H](N)Cc1cn([C@H](c2ccccc2)c2ccc(C)cc2)cn1)C(=O)N[C@@H](Cc1ccccc1)C(=O)N[C@@H](Cc1ccc(O)cc1)C(=O)O [HKFY-22, N6-octanoyl-N2-(Nt-((R)-phenyl(p-tolyl)methyl)-L-histidyl)-L-lysyl-L-phenylalanyl-L-tyrosine]
13 | 15 ± 1.37 -fold induction over basal | CCCCCCCC(=O)NCCCC[C@H](NC(=O)[C@@H](N)Cc1cn(C23CC4CC(CC(C4)C2)C3)cn1)C(=O)N[C@@H](Cc1ccccc1)C(=O)N[C@@H](Cc1ccc(O)cc1)C(=O)O [HKFY-23, N2-(Nt-(adamantan-1-yl)-L-histidyl)-N6-octanoyl-L-lysyl-L-phenylalanyl-L-tyrosine]
14 | 22.95 ± 2.58 -fold induction over basal | CCCCCCCC(=O)NCCCC[C@H](NC(=O)[C@@H](N)Cc1cn(C(c2ccccc2)(c2ccccc2)c2ccccc2)cn1)C(=O)N[C@H](Cc1ccc(F)cc1)C(=O)N[C@@H](Cc1ccc(O)cc1)C(=O)O [HKFY-28, ((R)-2-((S)-2-((S)-2-amino-3-(1-trityl-1H-imidazol-4-yl)propanamido)-6-octanamidohexanamido)-3-(4-fluorophenyl)propanoyl)-L-tyrosine] (H-[His(Trt)]K(Octanoyl)[dPhe(4-F)]Y-OH)
15 | 26.8 ± 1.87 -fold induction over basal | CCCCCCCC(=O)NCCCC[C@H](NC(=O)[C@@H](N)Cc1cn(C(c2ccccc2)(c2ccccc2)c2ccccc2)cn1)C(=O)N[C@H](Cc1ccc(Br)cc1)C(=O)N[C@@H](Cc1ccc(O)cc1)C(=O)O [HKFY-29, ((R)-2-((S)-2-((S)-2-amino-3-(1-trityl-1H-imidazol-4-yl)propanamido)-6-octanamidohexanamido)-3-(4-bromophenyl)propanoyl)-L-tyrosine] (H-[His(Trt)]K(Octanoyl)[dPhe(4-Br)]Y-OH)
16 | 13 ± 1.7 -fold induction over basal | CCCCCCCC(=O)NCCCC[C@H](NC(=O)[C@@H](N)Cc1cn(C(c2ccccc2)(c2ccccc2)c2ccccc2)cn1)C(=O)N[C@@H](Cc1ccc(O)cc1)C(=O)N[C@@H](Cc1ccccc1)C(=O)O [HKFY-47, N6-octanoyl-N2-(Nt-trityl-L-histidyl)-L-lysyl-L-tyrosyl-L-phenylalanine] (H-[His(Trt)]K(Octanoyl)YF-OH)
17 | 14.4 ± 2.7 -fold induction over basal | CCCCCCCC(=O)NCCCC[C@H](NC(=O)[C@@H](N)Cc1cn(C(c2ccccc2)(c2ccccc2)c2ccccc2)cn1)C(=O)N[C@@H](Cc1ccc(O)cc1)C(=O)N[C@@H](Cc1ccc(O)cc1)C(=O)O [HKFY-48, N6-octanoyl-N2-(Nt-trityl-L-histidyl)-L-lysyl-L-tyrosyl-L-tyrosine] (H-[His(Trt)]K(Octanoyl)YY-OH)

Reference: patent publication US20230212222A1 (ANYGEN CO., LTD., priority 2020, published 2023)
